# Measurements reported in ChEMBL document CHEMBL2311430, “Sirtuins as emerging anti-parasitic targets” (Eur J Med Chem, 2013).
# Numbered stars: 1 amine (or outer) side, 2 acyl side, 3 side chain; on linkers, the order of the positions; unused ones are H or OH. Bridge positions count the residues as written; N and C are the ends. Square brackets hold non-standard residues; d marks the D form. Peptide text beside a SMILES is read from it. X1 = CC(C)CCCCCCCCC[C@H](CC(=O)[*:1])O[*:2]
# System: not listed separately
# Test: Inhibition of Plasmodium falciparum NAD-dependent protein deacetylase Sir2A
row,Structure (SMILES),IC50
1,NC(=O)c1cccnc1 [NIACINAMIDE],51.2 µM

# Target: T1, Putative silent information regulator 2 (Leishmania infantum, UniProt A0A6L0XH39)
# T1 sequence (A0A6L0XH39 whole entry): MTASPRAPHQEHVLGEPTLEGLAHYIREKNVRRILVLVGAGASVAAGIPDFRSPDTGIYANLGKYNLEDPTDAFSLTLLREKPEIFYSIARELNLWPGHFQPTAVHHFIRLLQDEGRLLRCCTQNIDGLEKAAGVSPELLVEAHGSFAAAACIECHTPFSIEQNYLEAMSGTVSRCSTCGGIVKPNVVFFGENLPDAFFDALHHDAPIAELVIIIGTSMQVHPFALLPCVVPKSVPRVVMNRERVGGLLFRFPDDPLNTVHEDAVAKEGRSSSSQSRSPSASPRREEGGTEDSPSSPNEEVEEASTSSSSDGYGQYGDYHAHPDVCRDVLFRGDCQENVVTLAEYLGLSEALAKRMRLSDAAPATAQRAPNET
# Test: Inhibition of Leishmania infantum SIR2RP1
row,Structure (SMILES),IC50
1,O=C1c2cccc3cccc(c23)C(=O)N1CCCNCCCCCCCCCNCCCN1C(=O)c2cccc3cccc(c23)C1=O [BNIPDANON],5.7 µM
2,NC(=O)c1cccnc1 [NIACINAMIDE],39.4 µM
3,CC(C)CCCCCCCCC[C@@H]1CC(=O)N[C@@H](CCC(=O)O)C(=O)N[C@@H](CC(C)C)C(=O)N[C@H](CC(C)C)C(=O)N[C@@H](C(C)C)C(=O)N[C@@H](CC(=O)O)C(=O)N[C@H](CC(C)C)C(=O)N[C@@H](CC(C)C)C(=O)O1 [SURFACTIN] (EL[dL]VD[dL]L; linker N-C via X1),35.2 µM

# Continued, values first:
row,IC50,Structure (SMILES)
1,9.2 µM,O=C1c2cccc3cccc(c23)C(=O)N1CCCNCCCCCCCCNCCCN1C(=O)c2cccc3cccc(c23)C1=O [BNIPDAOCT]
2,194 µM,CC(NC(=O)c1ccccc1/N=C/c1c(O)ccc2ccccc12)c1ccccc1 (stereo unspecified) [SIRTINOL]
